Test results published in patent US8911984B2, “Tannase, gene encoding same, and process for producing same” (Amano Enzyme Inc., priority 2008, dated 2014).

B1: purified enzyme: tannase purified from Aspergillus awamori NBRC-4033 (IFO-4033), amino acid sequence SEQ ID NO: 5 (protein, listed as Aspergillus awamorii)
chain: MRSPAWASIAITAFAALANAGTPSTLAELCTDSIVKAALPPSEFIKGITIDSDSVTTEVVTNSSFSSEFYPSATIDYCNVTFAYSHDGIDGDQVLLEIWLPAPTNFKNRWLSTGGGGYAINSGDQSLPGGVMYGAASGMTDGGFGGFSNNADTAMLLANGTLNYETLYMFAYKAHRELSLLGKALTRNVYGMSDSDKLYAYYQGCSEGGREGWSQVQRFGDEWDGAIIGAPAFRWSFQQTQHLYSNIVEKTLDYYPPPCELDKIVNETIAACDAMDGKVDWVVARTDLCLLDFDISTIEGKPYSCAASRGTPAQNGTVSAKGIEVAKTIINGLHDSQGRRVYFSYQPTAAFDDAETQYNSTTGQWGLDIDQLGGEYIALLVDKNGTTLDSLDGITYDTLKDWMISGLQEYYSTLQTTWPDLTPFHNAGGKVIHFHGDADFSIPTAASIRYWESVRSIMYPNKDYNSSAEALNEWYRLYTVPGAGHCATNDAMPNGPFPQTNMAVMIDWVENGVVPTTLNATVLQGENEGQNQQLCAWPLRPLWTNNGTTMECVYNQRSIDSWHYDLDAVPMPVY

Assays:
Tannase = assay: Effect of metallic ion and inhibitor on tannase activity; assay type: biochemical, Aspergillus awamori; details: 30° C. 30 minutes, pH 5.0; for Relative activity (%): no addition = 100%
Experimental: 0.5 mL of a 50 mM citric acid buffer solution (pH 5.0) containing 1% tannic acid (Tannic acid, ACS Reagent [SIGMA]) is added with 0.5 ml of an enzyme solution, […], thereafter adding a 0.2 M acetic acid buffer solution (pH 5.0) containing 2% BSA to terminate the reaction. After terminating the reaction, the reaction solution is stood still in ice for 20 minutes and then centrifuged at 3,000 rpm for 20 minutes. The obtained supernatant is diluted 50 holds and an absorbance at a wavelength of 260 nm is measured. An analytical curve (standard curve) is formed using gallic acid and an enzyme amount that releases 1 μM of gallic acid for 1 minute is assumed to be 1 unit. […] The activity increased by addition of urea.

[1] = test system: tannase derived from Aspergillus awamori; assay: Substrate specificity of tannase (rhodanine method); assay type: biochemical; details: 0.17% tannic acid or 10 mM gallic acid ester, pH 5.0, 37° C., 30 minutes; tannic acid = 100%
Experimental: As described below, the method of Sharma (Anal. Biochem. 279, 85-89, 2000) was modified and substrate specificity was measured.
125 μL of a 50 mM citric acid buffer solution (pH 5.0) containing 0.17% tannic acid or 10 mM gallic acid esters (methyl gallate, ethyl gallate, propyl gallate, and isoamyl gallate) is added with 125 μL of an enzyme solution and incubated at 37° C. for 30 minutes, followed by adding and mixing 300 μL of methanol containing 0.667% Rhodanine, and the reaction solution is stood still for 10 minutes. Next, 200 μL of 0.5 N NaOH is added and mixed and the reaction solution is stood still for 10 minutes. Subsequently, the reaction solution is diluted with 9 mL of distilled water and left for 5 minutes, and an absorbance at a wavelength of 520 nm is measured. An analytical curve (standard curve) was formed using gallic acid and an activity that releases 1 μM of gallic acid for 1 minute is assumed to be 1 unit.
Substrate specificities to tannic acid and gallic acid esters (methyl gallate, ethyl gallate, propyl gallate, and isoamyl gallate) were measured in the above-mentioned measurement method of substrate specificity. When a dissolution activity to tannic acid was assumed to be 100%, a dissolution activity of each of the gallic acid esters was 41% for methyl gallate, 30% for ethyl gallate, 29% for propyl gallate, and 27% for isoamyl gallate.

[2] = Optimum reaction pH of tannase; assay type: biochemical; details: 37° C., 30 minutes, 1% tannic acid; citric acid buffer pH 3-6, phosphate buffer pH 6-8
Experimental: (§1) 0.5 mL of a 50 mM citric acid buffer solution (pH 5.0) containing 1% tannic acid (Tannic acid, ACS Reagent [SIGMA]) is added with 0.5 ml of an enzyme solution, and incubated at 37° C. for 30 minutes, thereafter adding a 0.2 M acetic acid buffer solution (pH 5.0) containing 2% BSA to terminate the reaction. After terminating the reaction, the reaction solution is stood still in ice for 20 minutes and then centrifuged at 3,000 rpm for 20 minutes. The obtained supernatant is diluted 50 holds and an absorbance at a wavelength of 260 nm is measured. An analytical curve (standard curve) is formed using gallic acid and an enzyme amount that releases 1 μM of gallic acid for 1 minute is assumed to be 1 unit.
The optimum reaction pH was measured under the reaction condition of 37° C. for 30 minutes in each buffer solution (citric acid buffer solutions at pH 3.0, 3.5, 4.0, 4.5, 5.0, 5.5 and 6.0, and phosphate buffer solutions at pH 6.0, 6.5, 7.0, 7.5 and 8.0) using 1% tannic acid for a substrate. Each measurement result was shown as a relative activity, assuming a value of a pH showing the maximum activity as 100% (FIG. 2). The optimum reaction pH was about 5.5.

[3] = pH stability of purified tannase; assay type: biochemical; details: 30° C., 30 minutes
Experimental: as §1
The purified enzyme was treated in each buffer solution (citric acid buffer solutions at pH 3.0, 3.5, 4.0, 4.5, 5.0, 5.5 and 6.0, and phosphate buffer solutions at pH 6.0, 6.5, 7.0, 7.5 and 8.0) at 30° C. for 30 minutes and diluted 5 holds with a 0.2 M acetic acid buffer solution (pH 5.0), and an activity was measured in the above-mentioned measurement method of a tannase activity. Each measurement result was shown as a relative activity, assuming a value of a pH showing the maximum activity as 100% (FIG. 4). The stable pH range was from 3 to 8.

[4] = Isoelectric point by isoelectric electrophoresis (PhastSystem); assay type: physicochemical
Experimental: When the isoelectric point of the present enzyme was measured by isoelectric electrophoresis using PhastSystem (GE Healthcare Bio-Sciences Ltd.), it was 6.4.

[5] = Optimum reaction temperature of tannase; assay type: biochemical; details: 50 mM citric acid buffer solution (pH 5.0), 30-80° C. tested
Experimental: as §1
According to the above-mentioned measurement method of a tannase activity, the purified enzyme was reacted at reaction temperatures of 30° C., 35° C., 40° C., 45° C., 50° C., 55° C., 60° C., 65° C., 70° C., 75° C. and 80° C. Each measurement result was shown as a relative activity, assuming a value at a temperature showing the maximum activity as 100% (FIG. 1). The optimum reaction temperature was around 70° C.

[6] = Thermostability of purified tannase (residual activity after thermal treatment); assay type: biochemical; details: 30 minutes, 50 mM citric acid buffer solution (pH 5.0)
Experimental: as §1
The purified enzyme was thermally treated for 30 minutes at each temperature of 30° C., 35° C., 40° C., 45° C., 50° C., 55° C., 60° C., 65° C., 70° C., 75° C. and 80° C. in a 50 mM citric acid buffer solution (pH 5.0), and a residual activity was then measured in the above-mentioned measurement method of a tannase activity. Each measurement result was shown as a residual activity, assuming a thermally untreated activity as 100% (FIG. 3). The purified enzyme had 90% or more of a residual activity in the thermal treatment at 65° C. for 30 minutes and was stable until 65° C.

Molecule	Relative activity (%) (Tannase; 20 mM metallic ion or EDTA)	dissolution activity relative to tannic acid [1] [%]	also measured
[Mn+2] [Mn^2+]	98	–	–
O=C(OC[C@H]1O[C@@H](OC(=O)c2cc(O)c(O)c(OC(=O)c3cc(O)c(O)c(O)c3)c2)[C@H](OC(=O)c2cc(O)c(O)c(OC(=O)c3cc(O)c(O)c(O)c3)c2)[C@@H](OC(=O)c2cc(O)c(O)c(OC(=O)c3cc(O)c(O)c(O)c3)c2)[C@@H]1OC(=O)c1cc(O)c(O)c(OC(=O)c2cc(O)c(O)c(O)c2)c1)c1cc(O)c(O)c(OC(=O)c2cc(O)c(O)c(O)c2)c1 [tannic acid]	–	100	–
CCOC(=O)c1cc(O)c(O)c(O)c1 [ethyl gallate]	–	30	–
O=C(O)CN(CCN(CC(=O)O)CC(=O)O)CC(=O)O [EDTA]	101	–	–
[Mg+2] [Mg^2+]	118	–	–
[Ca+2] [Ca^2+]	109	–	–
[Fe+3] [Fe^3+]	91	–	–
NC(N)=O [Urea, urea]	–	–	effect on tannase activity (in words) (Tannase): increased; Relative activity (%) (Tannase; urea 0.4 M): 108%; Relative activity (%) (Tannase; urea 0.8 M): 117%; Relative activity (%) (Tannase; urea 2 M): 150%; Relative activity (%) (Tannase; urea 4 M): 197%
COC(=O)c1cc(O)c(O)c(O)c1 [methyl gallate]	–	41	–
CCCOC(=O)c1cc(O)c(O)c(O)c1 [propyl gallate]	–	29	–
CC(C)CCOC(=O)c1cc(O)c(O)c(O)c1 [isoamyl gallate]	–	27	–
[Cu+2] [Cu^2+]	72	–	–
[Zn+2] [Zn^2+]	82	–	–
B1	–	–	optimum reaction pH [2]: about 5.5; activity with respect to the maximum activity after treatment within pH 3 to 8 [3]: ≥ 80%; isoelectric point [4]: 6.4; optimum reaction temperature [5]: around 70 °C; residual activity after thermal treatment ([6]; 65° C., untreated = 100%): ≥ 90%; temperature up to which enzyme is stable [6]: ≤ 65 °C
